# According to patent publication US20190078161A1, “METHOD FOR IDENTIFYING CLINICAL TRIAL RESPONDERS FROM A PLACEBO GROUP IN MAJOR DEPRESSION” (Tekada Pharmaceutical Company Limited, priority 2016, published 2019):
# Experiments:
# Type in all cases: in vivo, human
# adult patients with MDD [1] = assay: Combined TAK-315 and TAK-316 Trials: predicted MADRS response rate by 24-SNP placebo subgroup
# Method: (§1) Multicenter, randomized, double-blind, parallel-group, placebo-controlled, drug-referenced, fixed-dose studies were conducted to evaluate the efficacy and safety of vortioxetine in the acute treatment of adult patients with MDD. A total of 595 individuals meeting the diagnostic criteria from the DSM-IV-TR for recurrent MDD were included in the studies, TAK-315, -316 and -317. The current major depressive disorder for each individual was confirmed by the Structured Clinical Interview for DSM Disorders (SCID). […] Individuals were treated with 10, 15 or 20 mg vortioxetine, or a different drug, or administered a placebo daily for 8 weeks.
# Secondary outcome measures included the proportion of responders at week 8 (responders defined as a 50% decrease in MADRS total score from baseline); a change from baseline in MADRS total score at week 8; and a change in clinical status using CGI-I score at week 8. The CGI-I scale is a 7-point scale rated from 1 (very much improved) to 7 (very much worse). The investigator rated the patient's overall improvement relative to baseline, whether or not, in the opinion of the investigator, this was entirely due to the treatment.
# A main effect model was utilized to identify genes or single variants prognostic of response using the placebo samples.
# In the placebo arm, the mean response rate in the subgroup [N=125; BM(+)] was 47.33% (CL: 0.38-0.57) and not in the subgroup [N=94; BM(−)] was 15.52% (CL: 0.1-0.25). The subgroup size in the placebo arm was 57.1% [BM(+)] and 42.9% [BM(−)]. […] The placebo subgroup size in the Vortioxetine 20 mg treat arm was 45.9(%) [BM(+), N=89] and 54.1% [BM(−), N=105].
# FIG. 8 provides a comparison of the 24 SNP placebo model in the three trials' (TAK-315, 316 & 317) placebo arms and the 20 mg vortioxetine dose in TAK-315 and -316. […] In the placebo arm the mean response rate in the subgroup [N=187; BM(+)] was 46.63% (CL: 0.39-0.55) and not in the subgroup [N=148; BM(−)] was 17.02% (CL: 0.12-0.24). The subgroup size in the placebo arm was 55.8% [BM(+)] and 44.2% [BM(−)]. […] The subgroup size in the Vortioxetine 20 mg treat arm was 45.9% [BM(+), N=89] and 54.1% [BM(−), N=105].
# adult patients with MDD [2] = assay: TAK-316 Trial: change from baseline in MADRS total score, 8 weeks of treatment
# Method: as §1
# (§2) Subjects were seen weekly during the first 2 weeks of treatment and then every 2 weeks up to the end of the 8-week treatment period. The primary outcome measure was change from baseline in MADRS total score after 8 Weeks of treatment. MADRS is a depression rating scale consisting of 10 items, each rated 0 (no symptom) to 6 (severe symptom). The 10 items represent the core symptoms of depressive illness. The rating is based on a clinical interview with the patient, moving from broadly phrased questions about symptoms to more detailed ones, which allow a precise rating of severity, covering the most recent 7 days. Total score is from 0 to 60, with a higher the score being the more severe. […]
# adult patients with MDD [3] = assay: TAK-315 Trial: change from baseline in MADRS total score, 8 weeks of treatment
# Method: as §1, §2
# [4] = 20 mg vortioxetine daily, 8 weeks
smiles,measurement,setting,value
Cc1ccc(Sc2ccccc2N2CCNCC2)c(C)c1 [vortioxetine],"mean response rate (MADRS, LSmean predicted response rate)","adult patients with MDD [1]; Vortioxetine 20 mg arm (TAK-315 and -316), placebo BM(+) subgroup N=89, analysis with TAK-315/316/317 placebo arms (FIG. 8)",36.00%
same,"mean response rate (MADRS, LSmean predicted response rate)","adult patients with MDD [1]; Vortioxetine 20 mg arm (TAK-315 and -316), placebo BM(−) subgroup N=105, analysis with TAK-315/316/317 placebo arms (FIG. 8)",44.0%
same,"mean response rate (MADRS, LSmean predicted response rate)","adult patients with MDD [1]; Vortioxetine 20 mg arm, placebo BM(+) subgroup N=89, TAK-315/316 analysis (FIG. 6)",35.96%
same,"mean response rate (MADRS, LSmean predicted response rate)","adult patients with MDD [1]; Vortioxetine 20 mg arm, placebo BM(−) subgroup N=105, TAK-315/316 analysis (FIG. 6)",43.0%
same,LS mean (SE) change from baseline in MADRS score,adult patients with MDD [2]; [4],−13.87 (1.63)
same,"LS mean difference in MADRS change, active vs. placebo BM(+)","adult patients with MDD [2]; 20 mg vortioxetine vs 24-SNP Placebo BM(+) subgroup, SE 2.14",0.12
same,LS mean (SE) change from baseline in MADRS score,adult patients with MDD [3]; [4],−15.56 (1.67)
same,"LS mean difference in MADRS change, active vs. placebo BM(+)","adult patients with MDD [3]; 20 mg vortioxetine vs 24-SNP Placebo BM(+) subgroup, SE 2.11",0.12
